Assay results reported in paper PMC3703859 (Neuropharmacology, 2010).

Columns and labels:
Experiment in all cases: [^3H]CFT binding on intact transfected COS7 cells
wild type human DAT = wild type human DAT (Homo sapiens, UniProt Q01959); conditions: WT DAT
human DAT V152I = human DAT V152I (Homo sapiens, UniProt Q01959, V152I); conditions: V152I, intact COS7 cells
human DAT A479V/A480V = human DAT A479V/A480V (Homo sapiens, UniProt Q01959, A479V/A480V)
human DAT V152A = human DAT V152A (Homo sapiens, UniProt Q01959, V152A); conditions: V152A, intact COS7 cells
Sequence of human DAT V152A (Q01959 whole entry V152A): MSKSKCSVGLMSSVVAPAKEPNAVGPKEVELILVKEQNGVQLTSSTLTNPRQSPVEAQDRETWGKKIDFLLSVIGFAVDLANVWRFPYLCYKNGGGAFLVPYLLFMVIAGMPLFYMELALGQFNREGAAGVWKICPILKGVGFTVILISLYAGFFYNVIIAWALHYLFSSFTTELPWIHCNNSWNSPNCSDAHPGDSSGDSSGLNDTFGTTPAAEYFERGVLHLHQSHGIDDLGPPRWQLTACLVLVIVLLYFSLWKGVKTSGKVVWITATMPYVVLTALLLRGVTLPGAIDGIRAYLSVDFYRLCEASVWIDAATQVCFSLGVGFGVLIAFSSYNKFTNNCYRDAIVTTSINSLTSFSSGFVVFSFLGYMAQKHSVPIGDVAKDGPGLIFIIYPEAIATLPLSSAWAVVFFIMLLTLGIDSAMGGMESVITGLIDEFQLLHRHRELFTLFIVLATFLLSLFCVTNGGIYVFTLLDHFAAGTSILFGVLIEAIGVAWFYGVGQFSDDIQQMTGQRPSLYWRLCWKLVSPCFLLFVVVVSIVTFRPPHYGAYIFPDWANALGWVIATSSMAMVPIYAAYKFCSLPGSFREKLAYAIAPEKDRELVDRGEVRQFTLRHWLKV

Sequence of human DAT A479V/A480V (Q01959 whole entry A479V/A480V): as the sequence (Q01959 whole entry V152A) above, with A152V, A479V, A480V counted along it
Sequence of wild type human DAT (Q01959 whole entry): as the sequence (Q01959 whole entry V152A) above, with A152V counted along it
Sequence of human DAT V152I (Q01959 whole entry V152I): as the sequence (Q01959 whole entry V152A) above, with A152I counted along it

COC(=O)[C@H]1[C@@H](c2ccc(F)cc2)C[C@@H]2CC[C@H]1N2C [CFT, (−)-2β-carbomethoxy-3β-(4-fluorophenyl)tropane]
Bmax ± S.E. of [^3H]CFT binding (wild type human DAT): 386 ± 89 fmol/10^5 cells
Bmax ± S.E. of [^3H]CFT binding (human DAT V152I): 215 ± 58 fmol/10^5 cells
Bmax ± S.E. of [^3H]CFT binding (human DAT A479V/A480V): 310 ± 44 fmol/10^5 cells
Bmax ± S.E. of [^3H]CFT binding (human DAT V152A): 380 ± 99 fmol/10^5 cells
